Measurements published in US20150045425A1, “PELTATIN AND METABOLIC DISORDERS” (NESTEC S.A., priority 2012, published 2015).

System: HeLa cells
Test: Cellular toxicity, standard method, compared to untreated cells
Assay type: cell-based, human
Settings: up to highest dose used
Protocol: The AC50 (upper part of the insert) and the maximum % activation (lower part of the insert) are given. Cellular toxicity was also assessed with standard method compared to untreated cells and shown in % of toxicity.
An edible plant fraction library was tested for PPARs agonist activity and toxicity. Then relevant plant fractions were further analyzed and bioactive(s) characterized and validated with the same hPPARa, hPPARg or hPPARd reporter bioassays. The reporter bioassay we used in order to identify anti-inflammatory plant properties targeted activation of human PPARs in human HeLa cells (as described in the FIG. 1). All isolated bioactives were tested in a dose response manner in duplicate. Assays were repeated 3-4 times. Shown are mean values obtained. Therefore specificity (for all the three known human PPAR receptors namely PPARa, PPARd and PPARg) and efficacy (full agonist i.e. % maximal activity >100% or partial agonist i.e. % maximal activity <100%) were tested (FIG. 2-4).

Measured: Cellular toxicity (% of toxicity)

COc1cc([C@@H]2c3cc4c(c(O)c3C[C@H]3COC(=O)[C@@H]32)OCO4)cc(OC)c1OC [beta-Peltatin]
no toxicity was observed: FIG. 2, PPARa activation dose-response | FIG. 3, PPARg activation dose-response | FIG. 4, PPARd activation dose-response
